Reference: the supplement of paper PMC10307832

Key:
Assay in all cases: relative viability (nuclei count vs DMSO), 5 days (fraction); higher = more cells survive
[1] = compound: COc1cccc2cc(-c3nc([C@H]4CC[C@H](C(=O)O)CC4)n4ncnc(N)c34)[nH]c12 [OSI-027] + N=C(N)NC(=N)NCCc1ccccc1 [Phenformin] (partner 250 µM)
Procedure, shortened: (§1)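 A single step with final 0.05% Triton X-100, 1% formaldehyde and 1 ug/ml Hoechst fixed the cells and stained nuclei 5 days after treatment. Lung cancer cell lines in 1536-well plates had been treated by pin tool the day after seeding with one drug alone or a fixed anchor-drug dose plus five library-drug doses (not always all listed) in √10 steps, and nuclei were counted on 4× images. Relative viability is the ratio of nuclei in treated wells to nuclei in vehicle wells, taken as the median of duplicate plates.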

[2] = compound: Cc1nc(NC(=O)N2CCC[C@H]2C(N)=O)sc1-c1ccnc(C(C)(C)C(F)(F)F)c1 [Alpelisib] + O=C(c1cc(Cc2n[nH]c(=O)c3ccccc23)ccc1F)N1CCN(C(=O)C2CC2)CC1 [Olaparib] (partner 8 µM)
Procedure, shortened: as §1

[3] = compound: COc1cccc2cc(-c3nc([C@H]4CC[C@H](C(=O)O)CC4)n4ncnc(N)c34)[nH]c12 [OSI-027] + CCNC(=O)c1noc(-c2cc(C(C)C)c(O)cc2O)c1-c1ccc(CN2CCOCC2)cc1 [Luminespib] (partner 0.01 µM)
Procedure, shortened: as §1

[4] = compound: COc1cccc2cc(-c3nc([C@H]4CC[C@H](C(=O)O)CC4)n4ncnc(N)c34)[nH]c12 [OSI-027] + COc1cc2c(Oc3ccc(NC(=O)C4(C(=O)Nc5ccc(F)cc5)CC4)cc3F)ccnc2cc1OCCCN1CCOCC1 [Foretinib] (partner 0.25 µM)
Procedure, shortened: as §1

Cell Line | relative viability ([1]; first compound 0.01 µM) | relative viability ([1]; first compound 0.03162 µM) | relative viability ([1]; first compound 0.1 µM) | relative viability ([1]; first compound 0.3162 µM) | relative viability ([1]; first compound 1 µM) | relative viability ([2]; first compound 0.04 µM) | relative viability ([2]; first compound 0.1265 µM) | relative viability ([2]; first compound 0.4 µM) | relative viability ([2]; first compound 1.265 µM) | relative viability ([2]; first compound 4 µM) | relative viability ([3]; first compound 0.01 µM) | relative viability ([3]; first compound 0.03162 µM) | relative viability ([3]; first compound 0.1 µM) | relative viability ([3]; first compound 0.3162 µM) | relative viability ([3]; first compound 1 µM) | relative viability ([4]; first compound 0.01 µM) | relative viability ([4]; first compound 0.03162 µM) | relative viability ([4]; first compound 0.1 µM) | relative viability ([4]; first compound 0.3162 µM) | relative viability ([4]; first compound 1 µM)
HCC-44 | 0.16 | 0.229 | 0.127 | 0.158 | 0.12 | 0.979 | 0.943 | 1.07 | 0.979 | 0.936 | 1.33 | 0.89 | 0.903 | 0.759 | 0.512 | – | – | – | – | –
HCC-78 | 0.624 | 0.626 | 0.593 | 0.558 | 0.432 | 0.694 | 0.825 | 0.857 | 0.44 | 0.521 | – | – | – | – | – | 0.551 | 0.511 | 0.52 | 0.425 | 0.366
HCC-366 | 0.598 | 0.649 | 0.637 | 0.659 | 0.498 | 0.338 | 0.287 | 0.374 | 0.217 | 0.16 | – | – | – | – | – | 0.98 | 1.05 | 0.978 | 0.878 | 0.748
HCC-827 | 0.358 | 0.423 | 0.408 | 0.4 | 0.328 | 0.601 | 0.678 | 0.768 | 0.499 | 0.503 | 0.775 | 0.75 | 0.51 | 0.337 | 0.171 | 1.19 | 1.03 | 0.991 | 0.855 | 0.411
HOP-62 | 0.648 | 0.565 | 0.716 | 0.77 | 0.388 | 0.533 | 0.435 | 0.532 | 0.282 | 0.401 | 0.954 | 0.904 | 0.957 | 0.926 | 0.363 | 1.19 | 1.09 | 1.02 | 1.14 | 0.541
IA-LM | – | – | – | – | – | 1.03 | 0.857 | 0.776 | 0.723 | 0.667 | – | – | – | – | – | 1.21 | 0.992 | 0.729 | 0.807 | 0.136
LC-2-ad | 0.566 | 0.647 | 0.51 | 0.509 | 0.449 | 0.718 | 0.379 | 0.78 | 0.733 | 0.651 | 1.05 | 1.1 | 0.862 | 0.874 | 0.659 | 0.826 | 0.899 | 0.888 | 0.765 | 0.582
LCLC-97TM1 | 0.477 | 0.459 | 0.332 | 0.246 | 0.306 | 0.379 | 0.396 | 0.304 | 0.197 | 0.116 | 0.846 | 0.688 | 0.776 | 0.378 | 0.211 | 0.969 | 0.927 | 0.994 | 0.584 | 0.432
LCLC-103H | 0.348 | 0.337 | 0.36 | 0.284 | 0.272 | 0.766 | 0.787 | 0.744 | 0.603 | 0.497 | 1.03 | 0.994 | 0.908 | 0.85 | 0.504 | 0.693 | 0.658 | 0.786 | 0.666 | 0.334
LK-2 | 0.437 | 0.344 | 0.328 | 0.155 | 0.275 | 0.636 | 0.464 | 0.74 | 0.301 | 0.328 | 0.172 | 0.193 | 0.159 | 0.173 | 0.137 | 1.13 | 1.2 | 1.13 | 0.778 | 0.195
LOU-NH91 | 0.699 | 0.679 | 0.504 | 0.548 | 0.411 | 0.915 | 0.87 | 0.844 | 0.65 | 0.777 | 0.312 | 0.308 | 0.333 | 0.306 | 0.315 | 0.924 | 0.914 | 0.818 | 0.8 | 0.58
LU99A | 0.777 | 0.844 | 0.869 | 0.593 | 0.292 | 0.245 | 0.282 | 0.268 | 0.287 | 0.232 | 0.25 | 0.221 | 0.288 | 0.22 | 0.192 | 0.75 | 0.763 | 0.685 | 0.517 | 0.302
LXF-289 | 0.525 | 0.518 | 0.543 | 0.484 | 0.398 | 1.04 | 1.04 | 1.12 | 0.997 | 0.942 | 0.544 | 0.612 | 0.471 | 0.458 | 0.258 | 0.956 | 0.989 | 1.01 | 0.903 | 0.747
NCI-H522 | 0.72 | 0.57 | 0.583 | 0.506 | 0.508 | 0.795 | 0.693 | 0.529 | 0.661 | 0.491 | 1.2 | 1.25 | 1.19 | 0.698 | 0.58 | – | – | – | – | –
NCI-H1299 | – | – | – | – | – | 1 | 0.96 | 1.01 | 0.896 | 0.966 | – | – | – | – | – | 1.14 | 1.13 | 1.09 | 1.14 | 1.03
NCI-H1563 | 0.674 | 0.647 | 0.618 | 0.681 | 0.589 | – | – | – | – | – | 0.479 | 0.479 | 0.455 | 0.517 | 0.481 | 0.937 | 0.857 | 0.909 | 0.839 | 0.854
NCI-H1623 | 0.583 | 0.603 | 0.485 | 0.424 | 0.32 | – | – | – | – | – | 0.511 | 0.423 | 0.322 | 0.323 | 0.202 | 0.876 | 0.767 | 0.671 | 0.595 | 0.391
NCI-H1648 | – | – | – | – | – | 0.887 | 0.758 | 1.13 | 0.4 | 0.331 | – | – | – | – | – | – | – | – | – | –
NCI-H1703 | – | – | – | – | – | 0.415 | 0.335 | 0.296 | 0.204 | 0.15 | – | – | – | – | – | 0.324 | 0.336 | 0.291 | 0.429 | 0.324
NCI-H1792 | 0.126 | 0.168 | 0.228 | 0.204 | 0.173 | 0.48 | 0.528 | 0.68 | 0.36 | 0.205 | 0.737 | 0.268 | 0.37 | 0.422 | 0.18 | – | – | – | – | –
